Assay results published in patent US20240270786A1, “STEROID COMPOUNDS” (Epirium Bio Inc., priority 2022, published 2024).
Several values for one entry are separate records, joined by “and”; a condition that tells them apart may be missing. Equal entries are not always repeated.

What was measured:
[1] = tested on: PGC-1α expression in C2C12 cells; experiment: In vitro PGC-1α expression in C2C12 cells (cell ELISA); type: cell-based; conditions: 0.01 nM, 5000 cells/well, OD @ 650 nm, DMSO control = 100
Experimental: Culture conditions: DMEM containing 25 mM glucose with 10% FBS supplementation; grown at 37° C. and 5% CO2.
Drugs: (+)-Epicatechin, AICAR (direct activator of AMPK).
Assay Conditions: C2C12 cells were cultured in DMEM supplemented in 10% FBS upto 80% confluence. The cells were further trypsinized and seeded into a 96 well plate at a density of 5000 cells/well (well volume—100 μL) (Day 0). Following attachment, the cells were allowed to reach 80-90% confluence in the plate (typically 48 hours post seeding) and further differentiated using DMEM+2% Horse Serum (200 μL/well). The media was changed every day or at least every alternate day for 5 days to allow myoblasts to differentiate into myotubes. On day 7 (post seeding), the cells were treated with standards and test compounds for PGC-1 α assay.
PGC-1α assay: For the detection of PGC-1a, the cells were incubated with 0.5 μg/ml primary antibody (Merck, WH0010891M3) in PBS-T containing 5% BSA at 4° C. overnight. The cells were then washed three times with PBS-T for 5 minutes and incubated with 1:1000 dilution secondary antibody (Anti-rabbit IgG, HRP-linked Antibody, Cell Signaling) in PBS-T with 1% BSA for 1 hour at RT. Cells were washed three times with PBS-T for 5 minutes The cells were incubated with 100 μl TMB substrate solution for 30 minutes and the reaction was stopped with 100 μl of 2N H2SO4. […] (For plate optical density calculations, a background correction was taken at 540 nm). The final PGC-1a activation % is average of activation of 6 replicates.

[2] = Pharmacokinetics: quantitative determination of compounds in mice brains; type: in vivo, C57BL/6 Mice; conditions: C57BL/6, mouse, brain, 10 mg/kg PO single dose, vehicle 10% NMP
Experimental: C57BL/6 Mice, Age 7-9 weeks, body weight range 20-25 g were used. The mice were fasted overnight. Mice were dosed once a day for a single day at 10 mg/kg, 10 mg/kg. 6 time-points were used for whole blood. 10% NMP was used as a vehicle. 9 animals were used per treatment, with three groups of three animals each. Group 1 had time points at 15 and 60 minutes, Group 2 had time points at 30 and 120 minutes, and Group 3 had time points at 90 and 240 minutes. An Oral (PO) route was used. Plasma and brain samples were collected (brain sample collected at terminal time point). Plasma was collected through the centrifugation of whole blood at 10,000 rpm for 10 minutes at 4° C. Samples were stored at −80° C. until processing.
1.00 mg/mL in 100% MeOH PP vials (prepared at RT yellow light) at 2-8° C. were used as stock solution. 12.22-50000 ng/mL using 80% MeOH PP vials (prepared at RT yellow light) at 2-8° C. were used as working solution. 0.48-2000 ng/mL (prepared at RT yellow light) was used for the curve range. For Compounds 26, 40, and 50, 1.00 mg/mL of Compound 53 in 100% methanol Ria vials (Prepared at RT yellow light) was used as IS stock solution, and 80 ng/mL of Compound 53 in 80% methanol (Prepared at RT yellow light) was used as IS working solution. For Compound 36, 1.00 mg/mL of Compound 47 in 100% methanol Ria vials (Prepared at RT yellow light) was used as IS stock solution, and 80 ng/mL of Compound 47 in 80% methanol (Prepared at RT yellow light) was used as IS working solution. A linear, 1/×2 fit type was used. The injection volume was 10 μL for Compounds 26 and 36, and 5 μL for Compounds 40 and 50. Mobile Phase A was 0.1% Formic Acid in water at room temperature. Mobile Phase B was 100% methanol at room temperature. R0 wash solution was 80% methanol at room temperature. R3 wash solution was IPA/MeOH/ACN/water (1:1:1:1) at room temperature. The column was Agilent Eclipse 50*2.1 mm 1.8 μm and the instrument was Shimadzu LC-40 UPLC and AB Sciez 6500+ with LCMS002.
100 mg of brain tissue were weighed, 400 μL of Ice cold PBS was added, and samples were homogenated using polytron homogenizer. Before starting the experiment the blade was cleaned with NS, Methanol, Methanol: Water (50:50) followed by NS. Using a pipette with Methanol-rinsed pipette tips, homogenate 50 μL of each sample (calibration curve sample, QC samples and blank matrix) was aliquoted to labeled 1.5 ml Ependorfs. Using a pipette, 5.0 μL of IS of conc. 80 ng (Cocktail IS) was aliquoted to each standards and samples except Blank. All tubes were mixed on a multi-tube vortex for approximately 30 seconds. 1 ml of tert-butyl methyl ether (TBME) was added. All tubes were mixed on a multi-tube vortex for approximately 5 minutes then centrifuged for 10 min at 5,000 rpm, 4° C. The sample was kept in methanol containing dry ice for few seconds to freeze the Aqueous layer (flash freeze method). The upper organic layer was poured from the frozen tubes into the labeled 12×75-mm rial vials and evaporated to dryness under nitrogen using Liquid Evaporator (30° C., ˜15 psi, ˜10 mins). 200 μl of reconstitution solution (0.1% Formic Acid: MeOH (20:80 v/v) were added into each tube. The samples were vortexed for 30 seconds then transferred to amber glass injection vials for injection.
At the terminal time points, animals were euthanized after blood sample collection. Their skulls were opened and whole brains were separated and collected in previously labeled tubes. The tubes were then immediately transferred into liquid nitrogen container for snap freezing. Later the samples were stored at −80° C.

| AUC(0-t) [2] [ng·h/mL] | Cmax [2] [ng/mL] | Tmax [2] [h] | SMILES | % Activity (PGC-1α expression) [1] |
| --- | --- | --- | --- | --- |
| 487 | 433 | 1 | CN1C(=O)CC[C@@]2(C)C1=CCC1C2[C@@H](O)C[C@@]2(C)C1CC[C@@H]2NC(=O)C1CC1 (stereo partly drawn) [Compound 26, N-((4aR,5S,6aS,7S)-5-hydroxy-1,4a,6a-trimethyl-2-oxo-2,3,4,4a,4b,5,6,6a,7,8,9,9a,9b,10-tetradecahydro-1H-indeno[5,4-f]quinolin-7-yl)cyclopropanecarboxamide] | 129% and 146% |
| 1640 | 1160 | 1 | CC(C)CCNC(=O)C1CCC2C3CC=C4N(C)C(=O)CC[C@]4(C)C3[C@@H](O)C[C@]12C (stereo partly drawn) [Compound 36, (4aR,5S,6aS)-5-hydroxy-N-isopentyl-1,4a,6a-trimethyl-2-oxo-2,3,4,4a,4b,5,6,6a,7,8,9,9a,9b,10-tetradecahydro-1H-indeno[5,4-f]quinoline-7-carboxamide] | 133% and 130% |
| 2500 | 1680 | 1 | CNC(=O)[C@H]1CCC2C3CC=C4N(C)C(=O)CC[C@]4(C)C3[C@@H](O)C[C@@]21C (stereo partly drawn) [Compound 40, (4aR,5S,6aS)-5-hydroxy-N,1,4a,6a-tetramethyl-2-oxo-2,3,4,4a,4b,5,6,6a,7,8,9,9a,9b,10-tetradecahydro-1H-indeno[5,4-f] quinoline-7-carboxamide] | 130% and 143% |
